Read-outs that look alike come from different tables or passages of the source.
Key:
[1] = test system: A549 cells; assay: Cell-based assay, IL-6 ELISA quantification in IL-1 beta stimulated A549 cells; settings: 2 ng/ml human IL-1 beta overnight, class symbols, read-out: Celluar Data EC50
Description: The cell-based assays is based on IL-6 ELISA quantification. Briefly, A549 cells are cultured in DMEM with 10% FBS medium. When cells reach 80% confluence they are trypsin treated and seeded in 96-well plate at 2.5×10^4 cells/well. Then, 20 ul of compound serial dilutions (starting at 10 uM, 10 points) are added to the cell plate; incubate for 1 hour at 37 C and stimulated with 2 ng/ml human IL-1 beta 37 C overnight. The next day 100 ul of cell supernatant per well are analyzed on a Human IL-6 Quantikine ELISA kit from R&D Systems.

[2] = molecular target: IRAK4 (Homo sapiens (Human), UniProt Q9NWZ3); assay: IRAK-4 biochemical kinase assay, AlphaScreen format
Description: The biochemical assay is in a AlphaScreen format. The kinase reaction is based on the IRAK-4 phosphorylation of a biotin labeled peptide. The phosphopeptide is incubated with anti-phosphothreonine antibody as well as streptavidin- and protein A-coated beads. Binding of the protein-A coated beads to the antibody and the streptavidin beads to the peptide, leads to an energy transfer from one bead to the other, ultimately producing a luminescent/fluorescent signal.

[3] = 1 nM IRAK4, 1.6 μM peptide, 10 μM ATP, 3.5 h at RT, class symbols
[4] = 1 nM IRAK4, 1.6 μM peptide, 10 μM ATP, 3.5 h at RT, given as numeric bound

Chain of IRAK4 (Q9NWZ3 whole entry, species assumed): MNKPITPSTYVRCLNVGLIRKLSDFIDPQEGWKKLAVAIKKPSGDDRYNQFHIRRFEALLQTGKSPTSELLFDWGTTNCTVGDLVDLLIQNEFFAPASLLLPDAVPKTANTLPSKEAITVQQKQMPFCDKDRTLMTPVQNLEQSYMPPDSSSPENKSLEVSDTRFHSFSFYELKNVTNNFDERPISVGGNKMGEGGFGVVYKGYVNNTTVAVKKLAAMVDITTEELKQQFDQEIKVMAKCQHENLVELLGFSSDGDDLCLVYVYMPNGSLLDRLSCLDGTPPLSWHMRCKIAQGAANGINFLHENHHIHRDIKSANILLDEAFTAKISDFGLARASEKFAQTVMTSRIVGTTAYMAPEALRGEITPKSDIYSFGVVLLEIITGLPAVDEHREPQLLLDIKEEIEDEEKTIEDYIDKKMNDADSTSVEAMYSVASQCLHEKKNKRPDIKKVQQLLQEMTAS

Row | EC50 [1] [µM] | IC50 [2, 3] [µM] | IC50 [2, 4] [µM] | Compound | IC50 [2] [µM]
1 | < 1 | < 0.1 |  | CC(=O)N1CCCc2cc(ccn2)-c2nc(cs2)C(=O)Nc2cn(C3CCOCC3)nc2C(=O)NCC1 [Example 170] | 
2 | > 10 | < 0.1 |  | O=C1Nc2cccnc2C(=O)NCCOCCOc2cc(ccn2)-c2nc1cs2 [Example 128] | 
3 | < 10 | < 0.1 |  | O=C1Nc2cn(C3CCOCC3)nc2C(=O)NCCCCCc2cc(ccn2)-c2nc1co2 [Compound 40] | 
4 | < 1 | < 0.1 |  | O=C1Nc2cn(C3CCOCC3)nc2C(=O)NCCOCCCc2cc(ccn2)-c2nc1cs2 [Compound 47] | 
5 | < 1 | < 0.1 |  | O=C1Nc2cn(C3CCOCC3)nc2C(=O)NCCOCCCn2cc(cn2)-c2nc1cs2 [Example 136] | 
6 | < 10 | < 0.1 |  | O=C1Nc2cn(C3CCOCC3)nc2C(=O)NCCCCOc2cc(ccn2)-c2nc1cs2 [Example 90] | 
7 | < 10 | < 0.1 |  | CC(C)(C)OC(=O)N1CCC(n2cc3c(n2)C(=O)NCCOCCOc2cc(ccn2)-c2nc(cs2)C(=O)N3)CC1 [Example 164] | 
8 | < 1 | < 0.1 |  | O=C1Nc2cn(C3CCOCC3)nc2C(=O)NCCOCCCOc2cc(ccn2)-c2nc1cs2 [Example 123] | 
9 | < 10 | < 0.1 |  | O=C1Nc2cn(C3CCOCC3)nc2C(=O)NCCOCCCCc2cc(ccn2)-c2nc1cs2 [Example 218] | 
10 | > 10 | < 0.1 |  | O=C1Nc2cn(CCC3CCNCC3)nc2C(=O)NCCOCCOc2cc(ccn2)-c2nc1cs2 [Example 155] | 
11 | < 1 | < 0.1 |  | O=C1Nc2cnccc2C(=O)NCCOCCOc2cc(ccn2)-c2nc1cs2 [Example 130] | 
12 | > 10 | < 0.1 |  | CN(C)CCCn1cc2c(n1)C(=O)NCCOCCOc1cc(ccn1)-c1nc(cs1)C(=O)N2 [Example 138] | 
13 | < 10 | < 0.1 |  | CC(C)(C)OC(=O)N1CCN(CCn2cc3c(n2)C(=O)NCCOCCNc2cc(ccn2)-c2nc(cs2)C(=O)N3)CC1 [Example 144] | 
14 | < 10 | < 1 |  | O=C1NC[C@H]2CC[C@@H](C2)OCCCNc2cc(ccn2)-c2nc1cs2 [Example 82] | 
15 | < 1 | < 0.1 |  | Cn1cc2c(n1)C(=O)NCCCOCCOc1cc(ccn1)-c1nc(cs1)C(=O)N2 [Example 120] | 
16 | < 1 | < 0.1 |  | O=C1Nc2cn(C3CCOCC3)nc2C(=O)NCCOCCNc2cc(ccn2)-c2nc1cs2 [Compound 46] | 
17 | < 10 | < 0.1 |  | O=C1Nc2cn(C3CCCCO3)nc2C(=O)NCCOCCOc2cc(ccn2)-c2nc1cs2 (centres unmarked) [Example 110] | 
18 | > 10 | < 0.1 |  | CC(C)n1cc2c(n1)C(=O)NCCOCCOc1cc(ccn1)-c1nc(cs1)C(=O)N2 [Example 162] | 
19 | < 1 | < 0.1 |  | Cn1cc2c(n1)C(=O)NCCOCCCOc1cc(ccn1)-c1nc(cs1)C(=O)N2 [Example 122] | 
20 | < 1 | < 0.1 |  | O=C1Nc2ccccc2OCCCCCNc2cc(ccn2)-c2nc1co2 [Compound 2] | 
21 | > 10 | < 1 |  | CN(C)C(=O)Cn1cc2c(n1)C(=O)NCCOCCOc1cc(ccn1)-c1nc(cs1)C(=O)N2 [Example 166] | 
22 | > 10 | < 0.1 |  | CCn1cc2c(n1)C(=O)NCCOCCOc1cc(ccn1)-c1nc(cs1)C(=O)N2 [Example 139] | 
23 | > 10 | < 1 |  | NC(=O)CCn1cc2c(n1)C(=O)NCCOCCOc1cc(ccn1)-c1nc(cs1)C(=O)N2 [Example 151] | 

Row | EC50 [1] [µM] | IC50 [2, 3] [µM] | IC50 [2, 4] [µM] | Compound | IC50 [2] [µM]
24 | < 10 | < 0.1 |  | O=C1Nc2cn(C3CCOCC3)nc2C(=O)NCCOCCOc2cc(ccn2)-c2nc1cs2 [Compound 44] | 
25 | < 1 | < 0.1 |  | Cn1cc2c(n1)C(=O)NCCCCOc1cc(ccn1)-c1nc(co1)C(=O)N2 [Compound 34] | 
26 | > 10 | < 1 |  | CN1CCN(CCn2ncc3c2C(=O)NCCOCCNc2cc(ccn2)-c2nc(cs2)C(=O)N3)CC1 [Example 142] | 
27 | < 10 | < 0.1 |  | O=C1Nc2cn(CCN3CCOCC3)nc2C(=O)NCCOCCOc2cc(ccn2)-c2nc1cs2 [Example 112] | 
28 | > 10 | < 1 |  | CN1CCC(Cn2cc3c(n2)C(=O)NCCOCCOc2cc(ccn2)-c2nc(cs2)C(=O)N3)CC1 [Example 158] | 
29 | > 10 | < 1 |  | NC(=O)Cn1cc2c(n1)C(=O)NCCOCCOc1cc(ccn1)-c1nc(cs1)C(=O)N2 [Example 147] | 
30 | < 1 | < 0.1 |  | O=C1Nc2cn(C3CCOCC3)nc2C(=O)NCCCOCCOc2cc(ccn2)-c2nc1co2 [Example 125] | 
31 | < 10 | < 0.1 |  | CN1CCN(CCn2cc3c(n2)C(=O)NCCOCCOc2cc(ccn2)-c2nc(cs2)C(=O)N3)CC1 [Example 113] | 
32 | < 1 | < 0.1 |  | O=C1Nc2ccncc2C(=O)NCCOCCOc2cc(ccn2)-c2nc1cs2 [Example 129] | 
33 | < 10 | < 0.1 |  | O=C1Nc2cn(CCN3CCNCC3)nc2C(=O)NCCOCCNc2cc(ccn2)-c2nc1cs2 [Example 145] | 
34 |  | < 1 |  | Cn1cc2c(n1)C(=O)NCCCCCn1cc(cn1)-c1nc(co1)C(=O)N2 [Compound 41] | 
35 |  | < 0.1 |  | O=C1CNC(=O)c2nn(C3CCOCC3)cc2NC(=O)c2csc(n2)-c2ccnc(c2)CCCN1 [Example 196] | 
36 |  | < 0.1 |  | CCC(=O)N1CCCc2cc(ccn2)-c2nc(cs2)C(=O)Nc2cn(C3CCOCC3)nc2C(=O)NCC1 [Example 183] | 
37 |  | < 0.1 |  | CCOC(=O)CC(=O)N1CCCc2cc(ccn2)-c2nc(cs2)C(=O)Nc2cn(C3CCOCC3)nc2C(=O)NCC1 [Example 189] | 
38 |  |  | > 10 | O=C1c2coc(n2)-c2ccncc2OCCCN1CCCN1CCCCC1 [Example 102] | 
39 |  |  | > 10 | CN1CCCOc2cnccc2-c2nc(cs2)C1=O [Example 100] | 
40 |  | < 1 |  | CN1CCCCCOc2ccccc2NC(=O)c2coc(n2)-c2ccnc1c2 [Compound 11] | 
41 |  | < 0.1 |  | CN(C)CCC(=O)N1CCCc2cc(ccn2)-c2nc(cs2)C(=O)Nc2cn(C3CCOCC3)nc2C(=O)NCC1 [Example 177] | 
42 |  |  |  | O=C1Nc2ccccc2OCCCCCCCn2cc(cn2)-c2nc1cs2 [Compound 6] | < 1
43 |  | < 0.1 |  | CNC(=O)c1ccc2c(c1)NC(=O)c1csc(n1)-c1ccnc(c1)NCCCCCO2 [Compound 17] | 
44 |  | < 10 |  | CC(C)(C)OC(=O)N1CCC(CCn2ncc3c2C(=O)NCCOCCOc2cc(ccn2)-c2nc(cs2)C(=O)N3)CC1 [Example 157] | 
45 |  | < 0.1 |  | NCCC(=O)N1CCCc2cc(ccn2)-c2nc(cs2)C(=O)Nc2cn(C3CCOCC3)nc2C(=O)NCC1 [Example 178] | 
46 |  | < 1 |  | O=C1NCC(C2CC2)OCCCCCNc2cc(ccn2)-c2nc1co2 (centres unmarked) [Example 75] | 

Row | EC50 [1] [µM] | IC50 [2, 3] [µM] | IC50 [2, 4] [µM] | Compound | IC50 [2] [µM]
47 |  | < 10 |  | CC1CNC(=O)c2coc(n2)-c2ccnc(c2)NCCCCCO1 (centres unmarked) [Example 74] | 
48 |  | < 1 |  | Cn1cc2c(n1)C(=O)NCCOCCOc1cc(ccn1)-c1cccc(c1)C(=O)N2 [Example 209] | 
49 |  |  | > 10 | O=C1c2coc(n2)-c2ccnc(c2)OCCCCCCN1CCCN1CCCCC1 [Compound 57] | 
50 |  | < 1 |  | CN(C)CCN1CCCCCCOc2cc(ccn2)-c2nc(co2)C1=O [Compound 54] | 
51 |  |  | > 10 | O=C1c2coc(n2)-c2ccnc(c2)OCCCCCCN1CCN1CCCCC1 [Compound 56] | 
52 |  | < 0.1 |  | O=C1Nc2ccccc2OCCCCCCn2cc(cn2)-c2nc1cs2 [Example 72] | 
53 |  | < 0.1 |  | Cn1cc2c(n1)C(=O)NCCCCNc1cc(ccn1)-c1nc(co1)C(=O)N2 [Compound 31] | 
54 |  | < 0.1 |  | CCN1CCCCCCOc2cc(ccn2)-c2nc(co2)C1=O [Compound 53] | 
55 |  | < 0.1 |  | O=C1Nc2cn(C3CCOCC3)nc2C(=O)NCCN(C(=O)C2CCOCC2)CCCc2cc(ccn2)-c2nc1cs2 [Example 190] | 
56 |  | < 10 |  | O=C1c2csc(n2)-c2ccnc(c2)OCCCCOCC2CCCN12 (centres unmarked) [Example 106] | 
57 |  | < 0.1 |  | CN1CCOCCNC(=O)c2nn(C)cc2NC(=O)c2csc(n2)-c2ccnc1c2 [Example 222] | 
58 |  | < 0.1 |  | O=C1Nc2cn(C3CCOCC3)nc2C(=O)NCCN(C(=O)CCO)CCCc2cc(ccn2)-c2nc1cs2 [Example 188] | 
59 |  | < 0.1 |  | CC(C)N1CCCc2cc(ccn2)-c2nc(cs2)C(=O)Nc2cn(C3CCOCC3)nc2C(=O)NCC1 [Example 174] | 
60 |  |  | > 10 | O=C1NCC(C2CCCCC2)OCCCCCNc2cc(ccn2)-c2nc1co2 (centres unmarked) [Example 77] | 
61 |  | < 0.1 |  | O=C1Nc2cn(C3CCOCC3)nc2C(=O)NCCNCCCc2cc(ccn2)-c2nc1cs2 [Example 168] | 
62 |  | < 10 |  | O=C1NCCOC2CCC(CC2)CNc2cc(ccn2)-c2nc1cs2 [Example 88] | 
63 |  | < 0.1 |  | Cn1cc2c(n1)C(=O)NCCCOCCCc1cc(ccn1)-c1nc(cs1)C(=O)N2 [Example 215] | 
64 |  | < 1 |  | O=C1Nc2cn(C3CCOCC3)nc2C(=O)NCCOCCOc2cc(ccn2)-c2csc1n2 [Example 214] | 
65 |  |  | > 10 | O=C1Nc2cn(C3CCOCC3)nc2C(=O)NC(CCOCc2ccccc2)C(=O)NCCCc2cc(ccn2)-c2nc1cs2 (centres unmarked) [Example 199] | 
66 |  | < 0.1 |  | CC1CCCC(C)Oc2ccccc2NC(=O)c2coc(n2)-c2ccnc(c2)N1 (centres unmarked) [Example 71] | 
67 |  | < 0.1 |  | CC1CCCCOc2ccccc2NC(=O)c2coc(n2)-c2ccnc(c2)N1 (centres unmarked) [Compound 10] | 

Row | Compound | EC50 [1] [µM] | IC50 [2, 3] [µM] | IC50 [2, 4] [µM] | IC50 [2] [µM]
68 | Cn1cc2c(n1)C(=O)NCCCCCc1cc(ccn1)-c1nc(cn1COCC[Si](C)(C)C)C(=O)N2 [Example 99] |  | < 10 |  | 

From patent publication US9617282B2, “Macrocyclic compounds as IRAK4 inhibitors for the treatment of inflammatory diseases” (BIOGEN MA INC., priority 2013, dated 2017)
